Measured values taken from patent US20250073338A1, “CONJUGATE COMPOUNDS AND COMPOSITIONS” (REZUBIO PHARMACEUTICALS CO., LTD, priority 2023, published 2025).
Structures can show the parent of a compound that is named as a salt.

Columns and labels:
[1] = Plasma drug concentration at end of oGTT study by LC-MS/MS; format: in vivo, Male C57BL/6 mice; conditions: male, C57BL/6, mouse, 30 mpk oral, 6 h post dose, read-out: Drug conc
Method: (§1) Male C57BL/6 mice were purchased from Zhejiang Vital River Laboratories Co., Ltd (a branch of Charles River Laboratories) at around 7-8 weeks of age (n=8). Animal were kept under regular light/dark cycle (12 h light: 12 h dark, L^D) at room temperature and fed regular chow diet and tap water ad libitum in facility for more than one week. On study day, animals were fasted by removing food at 7:00 AM. Blood glucose was measured at 9:00 AM by a glucometer (Roche) via tail bleeding and mice were sorted to groups of treatment based on average blood glucose (˜[…]). The vehicle (0.5% methylcellulose) or exemplary compounds solutions (30 mpk dose) were mixed well and dosed by oral gavage (dosing volume=10 ml/kg body weight). At 1:00 PM, blood glucose was measured by a glucometer (0 min). Animals were then PO dosed with 5 g/kg glucose for oral glucose challenge. Blood glucose was then measured at 20, 40, 60, and 120 min by glucometer. At the end of study, 50 μl tail blood from treatment groups were collected and mixed with 4% sodium citrate (vol 9:1). Tubes were centrifuged in a benchtop centrifuge for 10 min at 8,000 RPM at 4° C. Plasma samples were separated and stored in −80° C. freezer for measurements of PK by LC-MS/MS.

[2] = Pharmacokinetics in mice (IV and PO), plasma LC-MS/MS; format: in vivo, Male ICR (CD-1) mice; conditions: for Cl / AUC / half-life / Vd: IV (1 mpk); for AUC / half-life / Vd / Cmax / Tmax / bioavailability: male, ICR (CD-1), mouse, plasma; for AUC / half-life / Vd: 1 mg/kg; for half-life: read-out: T½ (converted); for Vd: read-out: Vss; for Cmax / Tmax / bioavailability: 10 mg/kg, PO (10 mpk); for bioavailability: oral bioavailability
Method: Male ICR (CD-1) mice at around 4-6 weeks with body weight of around 25 grams (n=3) were purchased from VT-River (Zhejiang, China). After 1-week acclimation, animals were dosed with exemplary compounds intravenously at 1 mpk or orally at 10 mpk (0.5% methylcellulose in PBS as vehicle for both routes of administration). Blood samples (30 μL) were collected via saphenous vein puncture at 5 (IV only), 15, 30, 60, 120, 240, 480, and 1440 min post dose. The blood samples were saved in 0.5 M K2EDTA coated tubes and centrifuged at 4,600 rpm at 4° C. for 5 min. Plasma samples were collected and stored in −80° C. till PK analysis.
Take 10 μL of K2EDTA-treated plasma samples of CD-1 mice, add 200 μL of precipitation solution with internal standard (5 ng/mL Terfenadine in MeOH/ACN), mix well by vortexing for 1 min at room temperature followed by centrifuge at 4° C. and 4000 rpm for 15 min. Save the supernatant as injection for LC-MS/MS quantification of exemplary compounds in plasma samples of mice.
Establish a standard curve before and after each analytical batch, accompanied by quality controls of low, medium, and high concentrations. The number of quality control samples is not less than 6 and should be equal to or more than the number of samples of each batch, and interspersed in sample measurement. Standard curve and quality control samples of each batch must meet the acceptance criteria.

C57BL/6 mice = assay: oGTT study (oral glucose tolerance test); format: in vivo, Male C57BL/6 mice; conditions: 30 mpk oral gavage, blood glucose AUC 0-120 minutes after 5 g/kg glucose challenge
Method: as §1

GPR40 = biological target: T1, GPR40 (Homo sapiens, UniProt O14842); assay: IP1 accumulation assay in HEK293 cells stably expressing GPR40; format: cell-based; conditions: HEK293 cells stably expressing GPR40, 2 hours at 37° C.
T1 construct: expressed in transfected cells
Method: IP1 accumulation assay was used to evaluate the potency of compounds. HEK293 cells stably expressing GPR40 were cultured in 5% CO2 incubator (ThermoFisher) in maintenance media (Dulbecco's modified Eagle's medium with 4.5 g/L of glucose, 10% fetal bovine serum, 100 μg/mL Hygromycin, and Penicillin (100 U/mL)/Streptomycin (100 μg/mL)) till 100% confluency. Cells were harvested freshly, spun down at 300× g for 5 min, and resuspended in pre-warmed 1× stimulant buffer from Cisbio IP-One HTRF Detection kit (Cisbio). Cell density was adjusted to 2.0×10^6 cells/mL. DMSO was used as blank control and AMG-1638 (CAS #: 1142214-62-7) as positive control. Compounds were prepared at 10 mM in DMSO and 5 nL of 3× serially diluted compounds (10 concentrations) were added to each well of the 384-LDV assay plate (Corning) by using ECHO 550 (Labcyte). Five μL of cells in suspension were transferred into each well by using Multidrop Combi Reagent Dispenser (ThermoFisher). Assay plate was then sealed and incubated at 37° C. for 2 hours. IP-d2 reagent and anti-IP1 reagent were prepared following the manual (Cisbio). Five μL of IP1-d2 and then 5 μL of anti-IP1 antibody was added to each well sequentially. Assay plate was incubated at room temperature for 60 min and then read at 665 nm/615 nm on an Envision plate reader (PerkinElmer). The ratio of values obtained at 665 nm and 615 nm was used for calculation of IP1 accumulation: % Effect=(Ratiosample−Ratioblank)/(RatioAMG-1638−Ratioblank)×100. Dose curve was fitted and EC50 of each compound was calculated by using XLFit.

T1 sequence (O14842 whole entry): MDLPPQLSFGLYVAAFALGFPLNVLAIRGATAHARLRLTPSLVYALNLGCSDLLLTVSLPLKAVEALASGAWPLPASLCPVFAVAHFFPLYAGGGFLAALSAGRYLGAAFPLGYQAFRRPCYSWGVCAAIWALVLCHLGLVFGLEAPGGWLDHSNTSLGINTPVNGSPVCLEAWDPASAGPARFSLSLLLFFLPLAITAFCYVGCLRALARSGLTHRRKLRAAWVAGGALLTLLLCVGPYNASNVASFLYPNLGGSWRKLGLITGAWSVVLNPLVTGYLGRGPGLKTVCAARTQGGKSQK

Row | concentration at 6 h [1] [ng/mL] | Cl [2] [ml/mL/kg] | AUC [2] [µM·h] | half-life [2] [h] | Vd [2] [L/kg] | Cmax [2] [nM] | Tmax [2] [h] | bioavailability [2] [%] | EC50 (GPR40) [nM] | Compound | % change in AUC over vehicle (C57BL/6 mice) [%]
1 | 274 ± 99 | 0.32 | 33.7 | 5.1 | 0.11 | 42 | 4 | 0.15 | 0.24 | COc1ccc(C(=O)N(CC(C)(C)CCCCCCCCCCCCCCCCCC(=O)NCCC[N+]23CCN(CC2)CC3)c2cccc(C)n2)c(N2CCC(COc3cc([C@@H](CC(=O)O)C4CC4)ccn3)CC2)c1 [Example 18, (S)-1-(3-(20-(2-(4-(((4-(2-carboxy-1-cyclopropylethyl)pyridin-2-yl)oxy)methyl)piperidin-1-yl)-4-methoxy-N-(6-methylpyridin-2-yl)benzamido)-19,19-dimethylicosanamido)propyl)-1,4-diazabicyclo[2.2.2]octan-1-ium TFA salt] | −26.4
2 | 347 ± 125 | 0.43 | 28.5 | 4.7 | 0.11 | 77 | 4 | 0.31 | 0.07 | COc1ccc(C(=O)N(CC(C)(C)CCCCCCCCCCCCCCCCCC(=O)NCCC[N+]23CC[N+](C)(CC2)CC3)c2cccc(C)n2)c(N2CCC(COc3cc([C@@H](CC(=O)O)C4CC4)ccn3)CC2)c1 [Example 19] | −29.7
